Key:
Type in all cases: binding
TACR3 = target: T1, TACR3 (Homo sapiens, UniProt P29371); test: NanoBRET screen HiBiT-TACR3 in HEK293
T1 construct: purchased Promega (in-house HiBiT-GPCR construct library, NanoBRET)
T1 sequence (P29371 1-465): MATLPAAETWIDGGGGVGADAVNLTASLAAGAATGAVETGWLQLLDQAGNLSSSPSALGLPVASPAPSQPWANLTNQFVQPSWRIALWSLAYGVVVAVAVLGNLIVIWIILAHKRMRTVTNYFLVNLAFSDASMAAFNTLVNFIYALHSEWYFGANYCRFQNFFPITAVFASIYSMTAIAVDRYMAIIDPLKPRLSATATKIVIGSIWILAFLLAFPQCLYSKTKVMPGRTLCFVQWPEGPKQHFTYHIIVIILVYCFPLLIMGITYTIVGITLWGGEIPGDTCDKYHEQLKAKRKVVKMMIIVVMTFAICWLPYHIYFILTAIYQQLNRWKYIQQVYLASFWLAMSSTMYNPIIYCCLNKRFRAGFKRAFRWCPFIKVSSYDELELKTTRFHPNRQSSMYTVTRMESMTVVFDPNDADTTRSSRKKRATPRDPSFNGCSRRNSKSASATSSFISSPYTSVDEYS
Method: (§1) Each tracer candidate was screened across the entire library of HiBiT-GPCR constructs using NanoBRET as the detection modality. As depicted in Figure 4A, the specificity of interactions was evaluated through decrease in BRET due to competitive displacement of a bound tracer by excess parental compound. Each tracer was analyzed for binding to each HiBiT-GPCR fusion in the absence and in the presence of competing parental compound. Briefly, HEK293 cells were transfected with HiBiT-GPCR constructs diluted into promoterless DNA to reduce expression and maximize translocation to the cell surface. Each tracer candidate was then screened at concentrations of 1 μM and 0.1 μM across cells expressing these fusions. Cells were treated for 1.5 h with tracer either alone or in the presence of 20 μM competing parental compound (i.e., control). BRET was measured upon addition of purified LgBiT and subsequent complementation with HiBiT genetically fused to a GPCR. The specificity of interactions was assessed through a decrease in BRET signal due to competitive displacement of the bound tracer. To further gauge the robustness of these interactions, the fold response over the control (i.e., BRETtracer/BRETcontrol) was calculated. We chose a 1.5-fold response, which translates to ≥7-fold signal over noise as the minimal threshold required to score an interaction as positive. […]. Below we highlight the screening results obtained for our exemplary fluorescent tracers based on Clozapine, Amitriptyline and AZD1283.
(§2) HiBiT-GPCR DNA constructs were diluted in 10 mM Tris pH 8 to a final concentration of 0.01 μg/μL, arrayed in 96-well plates and stored at −20 °C. For transfection, HEK293 cells were suspended in Opti-MEM (without phenol red) supplemented with 2% fetal bovine serum (Seradigm) and 100 units/mL penicillin–streptomycin (Gibco) at a final concentration of 220,000 cells/mL and dispensed into white 96-well plates at 90 μL/well. Subsequent transfections and screens were carried using an Agilent Bravo Automated Liquid Handling Platform. First, the 96-well HiBiT DNA arrays were diluted 25-fold in Opti-MEM (without serum or phenol red) to a final concentration of 0.0004 μg/μL and 20 μL of the diluted DNAs were transferred into new 96-well plates. Next, promoterless carrier DNA (1 μg/μL) was diluted 25-fold (0.04 μg/μL) and then dispensed into the diluted arrays at 20 μL/well. Following brief mixing, Viafect transfection reagent (Promega) diluted 16-fold into Opti-MEM was dispensed into the plates at 40 μL/well. After mixing by pipetting, plates were incubated for 10 min on the pipetting station deck. The DNA-transfection reagent complexes were then added to plates containing cells. To facilitate the screen, 10 μL of DNA-transfection reagent complexes were added in duplicates to the top 4 and bottom 4 rows, resulting in two identical 48-well arrays per plate. Plates with transfected cells were incubated for 18–20 h at 37 °C/5% CO2. A screen of each tracer across the entire library using two different concentrations requires duplicate plates of transfected cells. Depending on the number of tracers being screened, transfections can be scaled up using the same ratios. The next day, for each tracer, four 20× screening solutions in tracer dilution buffer (Promega) were prepared: two duplicates at final concentration of 20 μM and two duplicates at a final concentration of 2 μM. A competing unmodified compound was added to one of each duplicate at a final concentration of 400 μM. The four resulting solutions were diluted 4-fold in Opti-MEM without serum or phenol red to generate 5× solutions (5 µM and 0.5 µM tracer +/− 100 μM competing compound). To screen the library, a BioTek MultiFlo FX liquid dispenser was used to dispense 22.5 µL of tracer solution to the top 4 rows and 22.5 µL tracer + competing compound solution to the 4 bottom rows. Plates were briefly mixed on an orbital shaker and incubated for 1.5 h at room temperature. […]

CXCR6 = target: T2, CXCR6 (Homo sapiens, UniProt O00574); test: NanoBRET screen HiBiT-CXCR6 in HEK293
T2 construct: purchased Promega (in-house HiBiT-GPCR construct library, NanoBRET)
Method: as §1, §2

HTR2A = target: T3, HTR2A (Homo sapiens, UniProt P28223); test: NanoBRET screen HiBiT-HTR2A in HEK293
T3 construct: purchased Promega (in-house HiBiT-GPCR construct library, NanoBRET)

CNR1 = target: T4, CNR1 (Homo sapiens, UniProt P21554); test: NanoBRET screen HiBiT-CNR1 in HEK293
T4 construct: purchased Promega (in-house HiBiT-GPCR construct library, NanoBRET)
Method: as §1, §2

ADRA2B = target: T5, ADRA2B (Homo sapiens, UniProt P18089); test: NanoBRET screen HiBiT-ADRA2B in HEK293
T5 construct: purchased Promega (in-house HiBiT-GPCR construct library, NanoBRET)
T5 sequence (P18089 1-450): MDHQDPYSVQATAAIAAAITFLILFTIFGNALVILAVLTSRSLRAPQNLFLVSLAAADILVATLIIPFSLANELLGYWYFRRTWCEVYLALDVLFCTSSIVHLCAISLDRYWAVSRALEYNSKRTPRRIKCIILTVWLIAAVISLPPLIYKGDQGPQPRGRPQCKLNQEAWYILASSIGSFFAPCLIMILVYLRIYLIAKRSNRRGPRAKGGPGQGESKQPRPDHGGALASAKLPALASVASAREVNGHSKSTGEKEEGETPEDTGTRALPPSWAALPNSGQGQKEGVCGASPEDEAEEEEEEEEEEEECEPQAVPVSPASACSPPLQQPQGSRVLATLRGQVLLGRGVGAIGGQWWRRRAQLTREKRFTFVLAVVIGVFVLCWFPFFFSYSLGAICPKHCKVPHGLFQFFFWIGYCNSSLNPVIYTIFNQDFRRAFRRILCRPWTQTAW

MC4R = target: T6, MC4R (Homo sapiens, UniProt P32245); test: NanoBRET screen HiBiT-MC4R in HEK293
T6 construct: purchased Promega (in-house HiBiT-GPCR construct library, NanoBRET)
Method: as §1, §2

T6 sequence (P32245 whole entry): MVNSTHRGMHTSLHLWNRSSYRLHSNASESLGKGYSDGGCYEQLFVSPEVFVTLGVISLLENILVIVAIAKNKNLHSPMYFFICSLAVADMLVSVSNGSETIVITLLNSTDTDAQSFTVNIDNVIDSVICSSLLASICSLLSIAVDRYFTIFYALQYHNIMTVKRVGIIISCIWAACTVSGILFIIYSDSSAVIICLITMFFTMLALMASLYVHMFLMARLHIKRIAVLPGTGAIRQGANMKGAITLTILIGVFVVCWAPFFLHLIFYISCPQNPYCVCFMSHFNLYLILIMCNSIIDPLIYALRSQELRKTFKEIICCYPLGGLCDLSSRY
T2 sequence (O00574 whole entry): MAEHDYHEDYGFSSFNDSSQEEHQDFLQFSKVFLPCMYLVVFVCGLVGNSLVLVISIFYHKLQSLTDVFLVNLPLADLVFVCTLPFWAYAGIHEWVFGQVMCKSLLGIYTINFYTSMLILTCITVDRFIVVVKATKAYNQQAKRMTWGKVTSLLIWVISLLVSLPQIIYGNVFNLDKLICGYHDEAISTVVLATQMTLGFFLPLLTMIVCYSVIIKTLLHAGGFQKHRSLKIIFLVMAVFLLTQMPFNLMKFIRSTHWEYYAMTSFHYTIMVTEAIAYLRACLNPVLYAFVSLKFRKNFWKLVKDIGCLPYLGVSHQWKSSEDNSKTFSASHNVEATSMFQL
T4 sequence (P21554 whole entry): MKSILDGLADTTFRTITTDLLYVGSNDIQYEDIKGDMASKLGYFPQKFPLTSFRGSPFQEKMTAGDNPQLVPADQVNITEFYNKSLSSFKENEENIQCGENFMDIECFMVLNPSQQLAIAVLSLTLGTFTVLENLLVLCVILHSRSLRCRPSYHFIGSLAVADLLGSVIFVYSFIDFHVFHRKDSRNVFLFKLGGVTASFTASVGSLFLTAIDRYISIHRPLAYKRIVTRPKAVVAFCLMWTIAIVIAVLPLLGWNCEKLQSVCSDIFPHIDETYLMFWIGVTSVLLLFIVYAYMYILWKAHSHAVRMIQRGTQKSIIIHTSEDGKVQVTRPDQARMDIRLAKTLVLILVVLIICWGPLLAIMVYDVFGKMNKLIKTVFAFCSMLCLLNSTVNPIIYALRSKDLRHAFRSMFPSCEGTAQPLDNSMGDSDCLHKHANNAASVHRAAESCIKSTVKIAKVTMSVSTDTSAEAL
T3 sequence (P28223 whole entry): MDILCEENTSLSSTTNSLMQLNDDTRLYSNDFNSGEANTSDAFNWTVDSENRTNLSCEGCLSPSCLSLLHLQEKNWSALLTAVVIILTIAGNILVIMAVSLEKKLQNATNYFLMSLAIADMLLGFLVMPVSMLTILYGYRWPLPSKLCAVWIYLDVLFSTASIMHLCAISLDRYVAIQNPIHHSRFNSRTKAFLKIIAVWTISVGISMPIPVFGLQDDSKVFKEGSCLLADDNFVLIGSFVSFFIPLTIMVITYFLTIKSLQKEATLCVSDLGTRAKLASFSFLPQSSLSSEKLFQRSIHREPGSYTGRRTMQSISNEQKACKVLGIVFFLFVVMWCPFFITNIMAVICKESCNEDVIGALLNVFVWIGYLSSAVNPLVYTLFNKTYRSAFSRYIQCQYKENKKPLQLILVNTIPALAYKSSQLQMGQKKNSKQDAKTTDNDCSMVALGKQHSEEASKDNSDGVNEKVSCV

Row | SMILES | NanoBRET Fold Response (TACR3; TACR3, tracer 0.1μM) | NanoBRET Fold Response (TACR3; TACR3, tracer 1μM) | NanoBRET Fold Response (CXCR6; CXCR6, tracer 0.1μM) | NanoBRET Fold Response (CXCR6; CXCR6, tracer 1μM) | NanoBRET Fold Response (HTR2A; HTR2A, tracer 0.1μM) | NanoBRET Fold Response (HTR2A; HTR2A, tracer 1μM) | NanoBRET Fold Response (CNR1; CNR1, tracer 0.1μM) | NanoBRET Fold Response (CNR1; CNR1, tracer 1μM) | NanoBRET Fold Response (ADRA2B; ADRA2B, tracer 0.1μM) | NanoBRET Fold Response (ADRA2B; ADRA2B, tracer 1μM) | NanoBRET Fold Response (MC4R; MC4R, tracer 0.1μM) | NanoBRET Fold Response (MC4R; MC4R, tracer 1μM) | also measured
1 | CC(C)N(CC[C@H](c1ccccc1)c1cc(CCNC(=O)CCOCCOCCOCCOCCNC(=O)CCc2ccc3n2[B-](F)(F)[N+]2=C(c4ccc[nH]4)C=CC2=C3)ccc1O)C(C)C [Tolterodine-2-NB590] | 1.11 | 1.08 | 0.89 | 0.91 | 1.05 | 1.11 | 1.03 | 1.14 | 0.95 | 1.04 | 1.07 | 1.00 | 
2 | N#CN=C(NCCCOc1cccc(CN2CCCCC2)c1)NCCNC(=O)CCOCCOCCOCCOCCNC(=O)CCc1ccc2n1[B-](F)(F)[N+]1=C(c3ccc[nH]3)C=CC1=C2 [Aminopotentidine-2-NB590] | 1.06 | 1.06 | 1.06 | 1.03 | 0.98 | 1.02 | 0.98 | 1.00 | 1.12 | 1.11 | 0.99 | 0.89 | 
3 | COc1ccc2c(n1)c(CCNC(C)=O)cn2CCNC(=O)CCc1ccc2n1[B-](F)(F)[N+]1=C(c3ccc[nH]3)C=CC1=C2 [Azamelatonin-1-NB590] |  |  |  |  |  |  |  |  |  |  |  |  | NanoBRET Fold Response (TACR3; 0.1μM tracer): 1.06; NanoBRET Fold Response (TACR3; 1μM tracer): 0.87; NanoBRET Fold Response (CXCR6; 0.1μM tracer): 1.07; NanoBRET Fold Response (CXCR6; 1μM tracer): 0.89; NanoBRET Fold Response (HTR2A; 0.1μM tracer): 1.06; NanoBRET Fold Response (HTR2A; 1μM tracer): 1.06; NanoBRET Fold Response (CNR1; 0.1μM tracer): 1.01; NanoBRET Fold Response (CNR1; 1μM tracer): 0.95; NanoBRET Fold Response (ADRA2B; 0.1μM tracer): 1.18; NanoBRET Fold Response (ADRA2B; 1μM tracer): 0.96; NanoBRET Fold Response (MC4R; 0.1μM tracer): 0.87; NanoBRET Fold Response (MC4R; 1μM tracer): 1.03
4 | CC(C)N(CC[C@H](c1ccccc1)c1cc(CCNC(=O)c2ccc(CNC(=O)CCc3ccc4n3[B-](F)(F)[N+]3=C(c5ccc[nH]5)C=CC3=C4)cc2)ccc1O)C(C)C [Tolterodine-BZ-NB590] | 0.98 | 1.06 | 0.99 | 0.98 | 0.93 | 1.04 | 1.01 | 0.13 | 1.04 | 1.13 | 1.00 | 1.01 | 
5 | O=C(CCOCCOCCOCCOCCNC(=O)CCc1ccc2n1[B-](F)(F)[N+]1=C(c3ccc[nH]3)C=CC1=C2)NCCCN1CCN(C2=Nc3cc(Cl)ccc3Nc3ccccc32)CC1 [Clozapine-a-2-NB590] |  |  |  |  |  |  |  |  |  |  |  |  | NanoBRET Fold Response (TACR3; TACR3, 0.1μM tracer): 0.99; NanoBRET Fold Response (TACR3; TACR3, 1μM tracer): 1.21; NanoBRET Fold Response (CXCR6; CXCR6, 0.1μM tracer): 0.98; NanoBRET Fold Response (CXCR6; CXCR6, 1μM tracer): 1.08; NanoBRET Fold Response (HTR2A; HTR2A, 0.1μM tracer): 2.26; NanoBRET Fold Response (HTR2A; HTR2A, 1μM tracer): 2.01; NanoBRET Fold Response (CNR1; CNR1, 0.1μM tracer): 1.02; NanoBRET Fold Response (CNR1; CNR1, 1μM tracer): 1.04; NanoBRET Fold Response (ADRA2B; ADRA2B, 0.1μM tracer): 7.79; NanoBRET Fold Response (ADRA2B; ADRA2B, 1μM tracer): 7.79; NanoBRET Fold Response (MC4R; MC4R, 0.1μM tracer): 1.02; NanoBRET Fold Response (MC4R; MC4R, 1μM tracer): 1.01
